According to paper PMC4229098, “Alzheimer's Therapeutics Targeting Amyloid Beta 1–42 Oligomers I: Abeta 42 Oligomer Binding to Specific Neuronal Receptors Is Displaced by Drug Candidates That Improve Cognitive Deficits” (PLoS ONE, 2014):
Entries after “also recorded” stand apart in the source; their conditions may differ. Like-named read-outs stand apart in the source and are kept apart here.

Columns and labels:
[1] = system: neuronal synaptic puncta in hippocampal/cortical cultures; test: Abeta binding assay, neurons (immunofluorescence of neurite puncta); set-up: species or system rat; conditions: for displacement of Abeta oligomers: 15 µM compound added 1 hour after oligomers 0.5 µM, within 1 hour; for prevention of binding of Abeta oligomers to neuronal cultures: 15 µM compound one hour prior to synthetic Abeta oligomers 0.5 µM; for EC50: single site model
Procedure: Alternatively, displacement of prebound oligomers was evaluated by adding oligomers 60 min prior to the addition of compounds, followed by additional 30 minutes incubation. Cells were fixed with 3.75% formaldehyde for 15 min, blocked with 5% normal goat serum and 0.5% Triton X-100 and incubated with primary antibodies for Abeta (1 µg/ml 6E10 or 4G8, Covance catalog numbers SIG-39320 and SIG-39330, respectively), MAP-2 (0.2 µg/ml Chemicon), Synaptophysin-1 (1 µg/ml, Anaspec), glial fibrillary acidic protein (GFAP, 1 µg/ml, Thermo-Fisher) and fluorescently labeled secondary antibodies (2 µg/ml, Invitrogen). Images were acquired on a Cellomics VTi automated microscope with a 20X, 0.75 NA objective and analyzed using ThermoFisher/Cellomics Neuronal Profiling bioapplication set to measure punctate labeling of Abeta and synaptophysin-1 along MAP-2 labeled neurites. For each replicate experiment, at least 100 neurons were sampled from 4 replicate wells for each experimental condition (400 to 500 neurons per experimental condition). […] All data presented for Abeta binding to neurons represents total intensity of Abeta label in neurite spots per neuron, in relative fluorescent units (RFU), unless otherwise indicated.

Abeta 1–42 oligomers = biological target: T1, Abeta 1–42 oligomers (Homo sapiens, UniProt P05067); test: Oligomer-specific Abeta ELISA (direct action on oligomers); type: biochemical
T1 construct: purchased California Peptide Inc; American Peptide Company; or University of Pittsburgh Peptide Core facility 641-15; 62-0-80; host or cells: chemical synthesis
Procedure: Determination of oligomeric and monomeric concentrations of Abeta contained in a given Abeta preparation was done according to the method of LeVine. Briefly, total Abeta concentration is measured by two-site ELISA using different capture (6E10 monoclonal antibody, Covance SIG-39320) and detection (4G8- conjugated to biotin, Covance, SIG39240) antibodies and quantifyied with streptavidin-horseradish peroxidase (Millipore catalog number AP308P). Oligomerized Abeta is measured in the same samples by a single-site ELISA in which monoclonal antibodies to the same epitope are used for capture (4G8, Covance SIG-39330) and detection (4G8-biotin). The 4G8-biotin cannot bind to captured monomer because the epitope is blocked by the capture antibody, so only oligomers are detected with this configuration. The streptavidin-horseradish peroxidase therefore reports only oligomeric Abeta which has additional exposed 4G8 epitopes. Monomer concentration is calculated as the difference between total Abeta concentration and oligomer concentration.

[2] = system: mouse models of Alzheimer's disease; test: Behavioral tests (behavioral efficacy summary); type: in vivo, mice; set-up: key to Measured efficacy: statistically significant improvement (+); no significant improvement (-); conditions: for Behavioral efficacy: Table S1
From the text: (§1) All procedures were approved by the Institutional Animal Care and Use and Committee at Columbia University and Stanford University and were in compliance with the Office of Laboratory Animal Welfare and the Guide for the Care and Use of Laboratory Animals, Eighth Edition. Behavioral testing of wild-type, 3–4 month old, male, C57/BL6 mice, injected bilaterally into their hippocampus with Abeta oligomers and testing in the fear conditioning task was done according to published methods. Animals were anesthetized with […] Avertin prior to implantation of cannulas into the hippocampus. Testing of transgenic hAPP Swedish/London mice in the Morris water maze or fear conditioning tasks was done according to published methods, [38]. To measure brain concentration of drugs, brains were homogenized in 1 ml PBS per gram of brain tissue using a handheld homogenizer. Brain homogenate was then extracted with three volumes of ice cold methanol on ice for 15 minutes and centrifuged for 15 min. The supernates were analyzed by LC/MS/MS. Samples were compared to a calibration curve prepared in a similar manner by spiking blank control homogenate with standards prepared in DMSO and then extracted as above. At the end of all behavioral testing, animals were euthanized with CO2 followed by cervical dislocation.

sigma-2/PGRMC1 receptor = biological target: T2, sigma-2/PGRMC1 receptor (Homo sapiens, UniProt Q5BJF2); test: Sigma-2 radioligand binding; conditions: radioligand competition binding; read-out: Ki, binding affinity at the sigma-2/PGRMC1 receptor
T2 construct: endogenous in cells; host or cells: human Jurkat cells (membranes)
Procedure: Radioligand competition assays were performed in membranes from human Jurkat cells using 5 nM [^3H]1,3-di(2-tolyl) guanidine in the presence of 1 µM (+)-pentazocine with 10 µM haloperidol to define non-specific binding.

[3] = Brain concentration of compounds (LC/MS/MS); type: in vivo, mice; conditions: mouse, 24 h after last dose, read-out: Compound Concentration in brain
From the text: as §1

[4] = system: synaptophysin-immunopositive puncta along MAP2-labeled neurites; test: Synapse counting assay; type: cell-based, rat; conditions: for Affects Synapse density in the absence of Aβ: Table S1
Procedure: Sprague-Dawley rats, 18 days pregnant, were euthanized by CO2 asphyxiation followed by cervical dislocation, and embryos were removed. Hippocampus and cortical tissue from the embryo brains were digested in 2.5% Trypsin (Life Technologies) to dissociate cells. Isolated cells were plated at a density of 4.6×10^4 cells per cm^2 in 384-well poly-D Lysine coated plates (Greiner) in Neurobasal Media (Life Technologies) supplemented with B27 (Life Technologies), Glutamax (Life Technologies) and antibiotics (penicillin, 50 units/ml and streptomycin 50 µg/ml, Life Technologies). Cultures were maintained at 37°C in 5% CO2 with weekly media change for 3 weeks prior to experimentation. These mixed cultures of hippocampal plus cortical neurons and glia were used for all of the in vitro experiments described.
Cultures were treated with compounds for 60 minutes prior to addition of 6 µM (maximum from trafficking dose-response curve) of synthetic Abeta 1–42 oligomers and incubated for 24 hrs. Cultures were fixed and immunofluorescently labeled and imaged as for the Abeta binding assay. The ThermoFisher/Cellomics Neuronal Profiling bioapplication was used to count synaptophysin-immunopositive puncta along MAP2-labeled neurites. The number of puncta per unit length of neurites was used to determine effects of treatments. To attain statistical power of 80% and a p value of less than 0.05 (determined using G*Power software), twenty replicate wells were treated per experiment plate and compared to control wells on the same plate and experiments were repeated four times.

[5] = system: mature primary hippocampal and cortical cultures; test: Membrane trafficking assay (MTT formazan exocytosis); type: cell-based, rat; conditions: for Schild slope: against synthetic oligomers; for reversal of trafficking deficit caused by human patient derived Abeta: compound 0.2 µM, Abeta 1.5 pM; for effect on trafficking of compound alone: no Abeta;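 on all read-outs here: mixed neuron and glia cultures from E18 Sprague-Dawley rat embryos, grown 3 weeks in 384-well plates, labeled vesicles quantified by imaging or spectrophotometry as percent of vehicle-treated wells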
Procedure: Vesicular trafficking was measured using an adaptation of a method by Liu and Schubert [51]. […] Tetrazolium salts (3-(4,5-dimethylthiazol-2yl)-2,5diphenyl tetrazolium bromide, Roche Molecular Biochemicals) were added to a final concentration of 0.75 mM and incubated at 37°C for 60–90 min. Vesicular formazan remaining in cells was quantified by absorbance spectrometry (590 nm with 690 nm subtracted) following extraction with 1.6% Tween-20. All compounds were tested in quadruplicate wells for each concentration in at least 8 replicate experiments with data from all experiments pooled for analysis with means ± S.E.M.
The amount of labeled vesicles in treated cells is quantified by automated image processing or by spectrophotometry following extraction from cells and is calculated as a percentage of vehicle-treated values. Control wells consist of Abeta and vehicle treatment without test compounds. […] In the prevention configuration of this assay, compounds are added to neuronal cultures first, followed by oligomers. Compounds are also tested in the treatment configuration of this assay in which oligomers are added to the cultures first, followed by compound addition.

[6] = system: C57/BL6 mice injected with Abeta oligomers; test: Contextual fear conditioning after intrahippocampal Abeta oligomer injection; type: in vivo; conditions: 2 µM intrahippocampal; for prevention of Abeta oligomer-induced fear memory deficits: one hour prior to oligomer injection; for effect on fear memory when administered alone: without Abeta
From the text: as §1

[7] = system: hAPP Swe/Ldn transgenic mice; test: Contextual fear conditioning in transgenic mice; type: in vivo; conditions: 5.5 months, 9 month old males
From the text: as §1

[8] = system: hAPP Swe/Ldn transgenic mice; test: Morris water maze probe trial; type: in vivo; conditions: 42 days
From the text: as §1

[9] = 1 mg/kg/day s.c. osmotic minipump
[10] = 10 mg/kg/day s.c. osmotic minipump
[11] = hAPP Swedish/London transgenic, subcutaneous, 1 mg/kg/day s.c. osmotic minipump
[12] = hAPP Swedish/London transgenic, subcutaneous, 10 mg/kg/day s.c. osmotic minipump
[13] = Rattus norvegicus, compound added 1 hr prior to Abeta oligomers, log value, read-out: Prevention Log EC50 ± SE (converted)
[14] = Rattus norvegicus, compound added 1 hr prior to synthetic Abeta oligomers, read-out: Prevention EC50
[15] = Rattus norvegicus, 1 h, compound added 1 hr after Abeta oligomers, log value, read-out: Treatment Log EC50 ± SE (converted)
[16] = Rattus norvegicus, 1 h, compound added 1 hr after synthetic Abeta oligomers, read-out: Treatment EC50
[17] = hAPP Swe/Ldn transgenic, 10 mg/kg/day once daily oral gavage
[18] = hAPP Swe/Ldn transgenic, 30 mg/kg/day once daily oral gavage

T2 sequence (Q5BJF2 whole entry): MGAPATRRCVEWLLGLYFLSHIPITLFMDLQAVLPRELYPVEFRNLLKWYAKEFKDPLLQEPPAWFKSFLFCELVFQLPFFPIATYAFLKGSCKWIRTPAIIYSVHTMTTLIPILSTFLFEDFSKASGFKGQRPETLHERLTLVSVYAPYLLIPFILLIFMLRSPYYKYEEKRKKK
T1 sequence (P05067 672-713): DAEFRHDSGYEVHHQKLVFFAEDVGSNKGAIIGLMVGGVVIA

Row | Compound | displacement of Abeta oligomers [1] | prevention of binding of Abeta oligomers to neuronal cultures [1] | dissociation of preformed oligomers (Abeta 1–42 oligomers) | Measured efficacy [2, 9] | Measured efficacy [2, 10] | Behavioral efficacy [2] | Ki (sigma-2/PGRMC1 receptor) [µM] | concentration at 24 h [3, 11] [µM] | concentration at 24 h [3, 12] [µM] | Affects Synapse density in the absence of Aβ [4] | EC50 [5, 13] [µM] | EC50 [5, 14] [µM] | Schild slope [5] | reversal of trafficking deficit caused by human patient derived Abeta [5] | effect on trafficking of compound alone [5] | prevention of Abeta oligomer-induced fear memory deficits [6] | effect on fear memory when administered alone [6] | EC50 [5, 15] [µM] | EC50 [5, 16] [µM] | contextual fear memory performance ([7]; 30 mg/kg/day p.o.) | also measured
1 | CC(C)=CC(C[C@H](C)c1ccc(C)cc1)NCC(C)C (some centres unmarked) [CT0093] | 49±5% | 93%±2% | not by CT0109 or CT0093 | - | + | Yes | 0.054 | 0.064 | 0.555 | No | 4.9 | 4.9 | 1 | reverse the trafficking deficit | without affecting trafficking on their own | completely prevented fear memory deficits | no effect on memory |  |  |  | IC50 ([1]; compound before oligomers, read-out: IC50, Abeta binding, prevention): 2.2 µM; EC50 ([1]; pretreatment, read-out: EC50, prevention of Abeta binding): 2.2 ± 2.4 µM; EC50 ([5]; Rattus norvegicus, compound added 1 hr after Abeta oligomers, log value, read-out: Treatment Log EC50 ± SE (converted)): 2 µM; EC50 ([5]; Rattus norvegicus, compound added 1 hr after synthetic Abeta oligomers, read-out: Treatment EC50): 2 µM
2 | COc1cc(CCC(C)NCc2ccc(C(F)(F)F)cc2)ccc1O (centres unmarked) [CT0109] | 44%±3% | 99%±7% | not by CT0109 or CT0093 | + | + | Yes | 0.009 | 0.041 | 0.266 | No | 3.24 | 3.2 | 1 | reverse the trafficking deficit | without affecting trafficking on their own; also recorded: without affecting vesicles on its own | completely prevented fear memory deficits | no effect on memory | 4.07 | 4.1 |  | restoration of trafficking ([5]; 15 µM added 1 hr prior to synthetic Abeta oligomers 3 µM): restores trafficking to vehicle-treated levels; EC50 ([5]; Rattus norvegicus, Table S1, read-out: Block Aβ-induced membrane trafficking deficits EC50): 2.2 µM
3 | C[C@H](CCc1ccc(Cl)c(Cl)c1)NCc1ccc(C(F)(F)F)cc1 [CT01344] | 66±14% | 94%±4% |  |  |  | Yes | 0.048 |  |  | No | 8.71 | 8.7 | 1 |  |  |  |  | 6.46 | 7.3 | significantly improved fear memory performance | contextual fear memory performance ([7]; 10 mg/kg/day p.o.): significantly improved fear memory performance; IC50 ([1]; displacement of pre-bound oligomers, read-out: IC50, Abeta binding, treatment): 3.9 µM; EC50 ([1]; read-out: EC50, displacement of pre-bound Abeta binding): 3.9 ± 1.8 µM; Measured efficacy ([2]; 10 mg/kg/day oral gavage): +; Measured efficacy ([2]; 30 mg/kg/day oral gavage): +; concentration at 24 h [3, 17]: 0.394 µM; concentration at 24 h [3, 18]: 0.793 µM; restoration of synapse loss induced by Abeta ([4]; 15 µM): 100%
4 | Synthetic oligomers (low concentration): Abeta 1–42 oligomers formed at 500 nM, high molecular weight fraction from Sephadex G-75 [reference compound] |  |  |  |  |  |  |  |  |  |  |  |  |  |  |  |  |  |  |  |  | Treatment duration for maximum response ([5]; Abeta preparation dosed alone): 1 h; EC50 ([5]; preparation dosed alone, read-out: EC50 of Abeta preparation): 0.0027 µM
5 | COc1ccc(CCC(C)NC2CCCc3ccccc32)cc1 (centres unmarked) [CT01206] |  |  |  |  |  | No |  |  |  | Yes | 4.37 | 4.3 |  |  |  | not effective | caused fear memory deficits in the absence of Abeta |  |  |  | 
6 | C[C@H](CCc1ccc(Cl)cc1)NCc1ccc(C(F)(F)F)cc1 [CT01346] | 93±13% | 93%±4% |  |  |  | Yes | 0.05 |  |  | No | 9.33 | 9.4 | 1 |  |  |  |  | 8.71 | 8.7 | significantly improved fear memory performance | spatial memory retrieval performance, transgenic animals ([8]; 30 mg/kg/day oral, eleven month-old females): significantly improves spatial memory retrieval performance; behavior of treated nontransgenic animals ([8]; 30 mg/kg/day p.o.): behaved similarly to vehicle-treated wild-type animals; Measured efficacy ([2]; 10 mg/kg/day oral gavage): -; Measured efficacy ([2]; 30 mg/kg/day oral gavage): +; concentration at 24 h [3, 17]: 0.054 µM; concentration at 24 h [3, 18]: 0.33 µM
